Like-named read-outs stand apart in the source and are kept apart here.
Biological target: T1, HDM2 (Homo sapiens, UniProt Q00987)
T1 construct: Thioredoxin (N); made in house; host or cells: E. coli strain BL21(DE3)Rosetta
Experiment: HDM2 FRET assay (inhibition of binding of FITC labeled p53-pocket peptide to HDM2)
Conditions: read-out: FRET IC50
In short: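 TR-FRET with 0.5 nM His-tagged recombinant HDM2, 3 nM FITC-labelled p53 peptide and 0.25 nM Tb-anti-His antibody in PBS, 0.01% BSA, 0.01% Tween-20, 0.1% DMSO. IC50 from em520/em495 ratio over 10-point dilutions, 4-parameter logistic fit.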

[1] = 0.5 nM HDM2 (residues 17 to 125), 3nM peptide, two hour incubation at room temperature

T1 sequence (Q00987 17-125): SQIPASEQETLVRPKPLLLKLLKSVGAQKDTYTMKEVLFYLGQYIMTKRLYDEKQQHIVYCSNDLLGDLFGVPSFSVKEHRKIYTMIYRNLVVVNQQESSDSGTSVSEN

SMILES	IC50 [1] [nM]	IC50 (Table 17.2) [nM]
C[C@H]1OCCN(c2nc3nc(-c4n[nH]c(=O)o4)nc(-c4cccc(Cl)c4)c3n2C[C@H]2CC[C@H](C)CC2)[C@@H]1c1ccccc1 [Example 16.142, 5-{6-(3-chlorophenyl)-7-[(trans-4-methylcyclohexyl)methyl]-8-[(2R,3R)-2-methyl-3-phenylmorpholin-4-yl]-7H-purin-2-yl} - 1,3,4-oxadiazol-2(3H)-one]	1.5	–
C[C@H]1CC[C@H](Cn2c(N3CCOCC34CCC4)nc3nc(-c4noc(=O)[nH]4)nc(-c4cncc(Cl)c4)c32)CC1 [Example 16.144, 3-[6-(5-chloropyridin-3-yl)-7-[(trans-4-methylcyclohexyl)methyl]-8-(8-oxa-5-azaspiro[3.5]non-5-yl)-7H-purin-2-yl]-1,2,4-oxadiazol-5(4H)-one]	19.1	–
C[C@@H]1COC[C@@H](C)N1c1nc2nc(-c3n[nH]c(=O)o3)nc(-c3cccc(Cl)c3)c2n1C[C@H]1CC[C@H](C)CC1 [Example 16.147, 5-{6-(3-chlorophenyl)-8-[(3R,5R)-3,5-dimethylmorpholin-4-yl]-7-[(trans-4-methylcyclohexyl)methyl]-7H-purin-2-yl}-1,3,4-oxadiazol-2(3H)-one]	5.52	–
CN(C)C(=O)[C@@H]1CCCN1c1nc2nc(-c3noc(=O)[nH]3)nc(-c3cccc(Cl)c3)c2n1C[C@H]1CC[C@H](C)CC1 [Example 16.148, 1-[6-(3-chlorophenyl)-7-[(trans-4-methylcyclohexyl)methyl]-2-(5-oxo-4,5-dihydro-1,2,4-oxadiazol-3-yl)-7H-purin-8-yl]-N,N-dimethyl-L-prolinamide]	15.1	–
COC[C@@H]1CC[C@@H](COC)N1c1nc2nc(-c3noc(=O)[nH]3)nc(-c3cccc(Cl)c3)c2n1C[C@H]1CC[C@H](C)CC1 [Example 16.149, 3-{8-[(2S,5S)-2,5-bis(methoxymethyl)pyrrolidin-1-yl]-6-(3-chlorophenyl)-7-[(trans-4-methylcyclohexyl)methyl]-7H-purin-2-yl}-1,2,4-oxadiazol-5(4H)-one]	3.77	–
CC[C@@H]1[C@@H](C)OCCN1c1nc2nc(-c3noc(=O)[nH]3)nc(-c3cncc(Cl)c3)c2n1C[C@H]1CC[C@H](C)CC1 [Example 16.152, 3-{6-(5-chloropyridin-3-yl)-8-[(2R,3R)-3-ethyl-2-methylmorpholin-4-yl]-7-[(trans-4-methylcyclohexyl)methyl]-7H-purin-2-yl}-1,2,4-oxadiazol-5(4H)-one]	5.68	–
CC[C@@H]1[C@@H](C)OCCN1c1nc2nc(-c3n[nH]c(=O)o3)nc(-c3cncc(Cl)c3)c2n1C[C@H]1CC[C@H](C)CC1 [Example 16.153, 5-{6-(5-chloropyridin-3-yl)-8-[(2R,3R)-3-ethyl-2-methylmorpholin-4-yl]-7-[(trans-4-methylcyclohexyl)methyl]-7H-purin-2-yl}-1,3,4-oxadiazol-2(3H)-one]	10	–
COc1ncc(Cl)cc1-c1nc(-c2noc(=O)[nH]2)nc2nc(N3CCOC[C@H]3c3ccccc3)n(C[C@H]3CC[C@H](C)CC3)c12 [Example 16.156, 3-{6-(5-chloro-2-methoxypyridin-3-yl)-7-[(trans-4-methylcyclohexyl)methyl]-8-[(3R)-3-phenylmorpholin-4-yl]-7H-purin-2-yl}-1,2,4-oxadiazol-5(4H)-one]	0.851	–
COc1ncc(Cl)cc1-c1nc(-c2n[nH]c(=O)o2)nc2nc(N3CCOC[C@H]3c3ccccc3)n(C[C@H]3CC[C@H](C)CC3)c12 [Example 16.157, 5-{6-(5-chloro-2-methoxypyridin-3-yl)-7-[(trans-4-methylcyclohexyl)methyl]-8-[(3R)-3-phenylmorpholin-4-yl]-7H-purin-2-yl} - 1,3,4-oxadiazol-2(3H)-one]	0.882	–
Cc1ncc(Cl)cc1-c1nc(-c2noc(=O)[nH]2)nc2nc(N3CCOC[C@H]3c3ccccc3)n(C[C@H]3CC[C@H](C)CC3)c12 [Example 16.158, 3-{6-(5-chloro-2-methylpyridin-3-yl)-7-[(trans-4-methylcyclohexyl)methyl]-8-[(3R)-3-phenylmorpholin-4-yl]-7H-purin-2-yl}-1,2,4-oxadiazol-5(4H)-one]	0.601	–
Cc1ncc(Cl)cc1-c1nc(-c2n[nH]c(=O)o2)nc2nc(N3CCOC[C@H]3c3ccccc3)n(C[C@H]3CC[C@H](C)CC3)c12 [Example 16.159, 5-{6-(5-chloro-2-methylpyridin-3-yl)-7-[(trans-4-methylcyclohexyl)methyl]-8-[(3R)-3-phenylmorpholin-4-yl]-7H -purin-2-yl}-1,3,4-oxadiazol-2(3H)-one]	0.704	–
C[C@H]1CC[C@H](Cn2c(N3CCOC[C@H]3c3ccccc3)nc3nc(-c4noc(=O)[nH]4)nc(-c4cc(Cl)cnc4OCc4ccccc4)c32)CC1 [Example 16.161, 3-{6-[2-(benzyloxy)-5-chloropyridin-3-yl]-7-[(trans-4-methylcyclohexyl)methyl]-8-[(3R)-3-phenylmorpholin-4-yl]-7H-purin-2-yl}-1,2,4-oxadiazol-5(4H)-one]	3.65	–
C[C@H]1CC[C@H](Cn2c(N3CCOC[C@H]3c3ccccc3)nc3nc(-c4noc(=O)[nH]4)nc(-c4cc(Cl)cnc4O)c32)CC1 [Example 16.162, 3-{6-(5-chloro-2-hydroxypyridin-3-yl)-7-[(trans-4-methylcyclohexyl)methyl]-8-[(3R)-3-phenylmorpholin-4-yl]-7H-purin-2-yl}-1,2,4-oxadiazol-5(4H)-one]	0.847	–
C[C@H]1CC[C@H](Cn2c(N3CCOC[C@H]3c3ccccc3)nc3nc(-c4n[nH]c(=O)o4)nc(-c4cc(Cl)cnc4O)c32)CC1 [Example 16.163, 5-{6-(5-chloro-2-hydroxypyridin-3-yl)-7-[(trans-4-methylcyclohexyl)methyl]-8-[(3R)-3-phenylmorpholin-4-yl]-7H-purin-2-yl} -1,3,4-oxadiazol-2(3H)-one]	1.23	–
C[C@H]1CC[C@H](Cn2c(N3CCOC[C@H]3c3ccccc3)nc3nc(-c4noc(=O)[nH]4)nc(C4CCCCC4)c32)CC1 [Example 16.165, 3-{6-cyclohexyl-7-[(trans-4-methylcyclohexyl)methyl]-8-[(3R)-3-phenylmorpholin-4-yl]-7H-purin-2-yl}-1,2,4-oxadiazol-5(4H)-one]	5.08	–
C[C@H]1CC[C@H](Cn2c(N3CCOC[C@H]3c3ccccc3)nc3nc(-c4n[nH]c(=O)o4)nc(C4CCCCC4)c32)CC1 [Example 16.166, 5-{6-cyclohexyl-7-[(trans-4-methylcyclohexyl)methyl]-8-[(3R)-3-phenylmorpholin-4-yl]-7H -purin-2-yl}-1,3,4-oxadiazol-2(3H)-one]	9.22	–
C[C@H]1CC[C@H](Cn2c(N3CCOC[C@H]3c3ccccc3)nc3nc(-c4noc(=O)[nH]4)nc(C4CCOCC4)c32)CC1 [Example 16.167, 3-{7-[(trans-4-methylcyclohexyl)methyl]-8-[(3R)-3-phenylmorpholin-4-yl]-6-(tetrahydro-2H-pyran-4-yl)-7H-purin-2-yl}-1,2,4-oxadiazol-5(4H)-one]	46.6	–
C[C@H]1CC[C@H](Cn2c(N3CCOC[C@H]3c3ccccc3)nc3nc(-c4n[nH]c(=O)o4)nc(C4CCOCC4)c32)CC1 [Example 16.168, 5-{7-[(trans-4-methylcyclohexyl)methyl]-8-[(3R)-3-phenylmorpholin-4-yl]-6-(tetrahydro-2H-pyran-4-yl)-7H-purin-2-yl} -1,3,4-oxadiazol-2(3H)-one]	67.1	–
CC1CCCC(c2nc(-c3noc(=O)[nH]3)nc3nc(N4CCOC[C@H]4c4ccccc4)n(C[C@H]4CC[C@H](C)CC4)c23)C1 (stereo partly drawn) [Example 16.169, 3-{6-(3-methylcyclohexyl)-7-[(trans-4-methylcyclohexyl)methyl]-8-[(3R)-3-phenylmorpholin-4-yl]-7H -purin-2-yl}-1,2,4-oxadiazol-5(4H)-one]	2.53	–
CC1CCCC(c2nc(-c3n[nH]c(=O)o3)nc3nc(N4CCOC[C@H]4c4ccccc4)n(C[C@H]4CC[C@H](C)CC4)c23)C1 (stereo partly drawn) [Example 16.170, 5-{6-(3-methylcyclohexyl)-7-[(trans-4-methylcyclohexyl)methyl]-8-[(3R)-3-phenylmorpholin-4-yl]-7H-purin-2-yl} - 1,3,4-oxadiazol-2(3H)-one]	8.3	–
CCOc1nc(C(=O)O)nc2nc(-c3cccc(C)c3)n(Cc3ccc(C(F)(F)F)cc3)c12 [Example 17.1, 6-ethoxy-8-(3-methylphenyl)-7-[4-(trifluoromethyl)benzyl]-7H-purine-2-carboxylic acid]	5900	–
Cc1cccc(-c2nc3nc(C(=O)O)nc(OCC4CC4)c3n2Cc2ccc(C(F)(F)F)cc2)c1 [Example 17.2, 6-(cyclopropylmethoxy)-8-(3-methylphenyl)-7-[4-(trifluoromethyl)benzyl]-7H-purine-2-carboxylic acid]	814	–
Cc1cccc(-c2nc3nc(C(=O)O)nc(OCC4CCC4)c3n2Cc2ccc(C(F)(F)F)cc2)c1 [Example 17.3, 6-(cyclobutylmethoxy)-8-(3-methylphenyl)-7-[4-(trifluoromethyl)benzyl]-7H-purine-2-carboxylic acid]	192	–
CC(=O)N1CCN(c2nc3nc(-c4noc(=O)[nH]4)nc(N[C@H](C)C4CCC4)c3n2C[C@H]2CC[C@H](C)CC2)[C@H](C)C1 [Example 17.9, 3-(8-((R)-4-acetyl-2-methylpiperazin-1-yl)-6-(((R)-1-cyclobutylethyl)amino)-7-((trans-4-methylcyclohexyl)methyl)-7H-purin-2-yl)-1,2,4-oxadiazol-5(4H)-one]	–	2.61
CC(=O)N1CCN(c2nc3nc(-c4noc(=O)[nH]4)nc(N[C@H](C)C4CCC4)c3n2C[C@H]2CC[C@H](C)CC2)[C@H](c2ccccc2)C1 [Example 17.10, 3-{8-[(2R)-4-acetyl-2-phenylpiperazin-1-yl]-6-{[(1R)-1-cyclobutylethyl]amino}-7-[(trans-4-methylcyclohexyl)methyl]-7H-purin-2-yl}-1,2,4-oxadiazol-5(4H)-one]	–	0.215

From patent EP2951180B1, “2,6,7,8 SUBSTITUTED PURINES AS HDM2 INHIBITORS” (Merck Sharp & Dohme Corp., priority 2013, dated 2014)
